Experimental data as given in patent US6613307B1, “Aerosol formulations of salmeterol xinafoate” (SmithKline Beecham Corporation, priority 1998, dated 2003).

What was measured:
Type in all cases: physicochemical
[1] = Particle size analysis by laser diffraction (Malvern Mastersizer E), Example 3
Method: A solution of salmeterol xinafoate in acetone (0.6% w/v) was co-introduced with CO2 at 200 bar and 55° C. via a coaxial nozzle into the particle formation vessel using the apparatus described and shown in FIG. 1. A series of products was obtained by changing the flow rate ratio of salmeterol xinafoate solution/supercritical CO2, where the flow ratio is defined as: [formula]
The flow ratio was changed between 0.01 and 0.07, with a flow rate of 9 ml/min for the supercritical CO2.
The resultant dry, easily handlable products without significant static charge were examined by scanning electron microscopy (SEM) and by laser diffraction (Malvern Mastersizer E) for particle size analysis (see FIGS. 12-15).
The uniformity index is defined as: [formula]

[2] = Relative static charge: drug remaining coated to vial walls after rolling; settings: after rolling drug in vial for 5 minutes
Method: Using samples prepared as described in Example 1, a simple test was devised to determine their relative static charge based on the quantity of drug remaining coated to the walls of a vial after rolling a predetermined quantity of drug in the vial for 5 minutes. The greater the drug remaining on the vial, the higher the relative static charge associated with the drug substance.

[3] = Dynamic bulk density (fluidisability) of salmeterol xinafoate powders; settings: powder
Method: The dynamic bulk density (W) is indicative of a substance's fluidisability and is defined as: [formula]
where P is the packed bulk density (g.cm^−3), A is the aerated bulk density (g.cm^−3) and C is the compressibility (%) where C is calculated by the equation: [formula]
Conventionally crystallised salmeterol xinafoate, both before and after micronisation, was compared against salmeterol xinafoate made by the supercritical fluid method described herein. A solution of salmeterol xinafoate in acetone (0.63% w/v) was co-introduced with CO2 at 300 bar and 45° C. via a coaxial nozzle into the particle formation vessel using the apparatus described and shown in FIG. 1 to give sample 1. A solution of salmeterol xinafoate in acetone (0.50% w/v) was cointroduced with CO2 at 100 bar and 55° C. via a coaxial nozzle into the particle formation vessel using the apparatus described and shown in FIG. 1 to give sample 2. In each case, the solution flow rate was 0.4 ml/min and supercritical CO2 was co-introduced into the particle formation vessel at a flow rate of 9 ml/min.
The dynamic bulk densities are shown below in Table 2: […]

[4] = Scanning electron microscopy of particles; settings: SEM; needle shaped particles from isopropanol (0.2% w/v), 150 bar, 60° C.
Method: In another experiment, a solution of salmeterol xinafoate in isopropanol (0.2% w/v) was co-introduced with CO2 at 150 bar and 60° C. via a coaxial nozzle into the particle formation vessel using the apparatus described and shown in FIG. 1. The dry, easily handlable product without significant static charge was examined by SEM (see FIG. 16) and found to be composed of needle shaped particles with a maximum particle dimension of up to 300 microns. Thus by controlling and changing the working conditions of the particle formation process, salmeterol xinafoate products composed of particles with different particle sizes and size distributions were produced.

[5] = Reproducibility: particle size and distribution by laser diffraction (Malvern Mastersizer), Example 11; settings: 300 bar, 35° C., acetone 0.6% w/v; for Mean Particle Size: two different days
Method: Two different solutions of salmeterol xinafoate in acetone (0.6% w/v) were made and each solution was co-introduced with CO2 via a coaxial nozzle into the particle formation vessel using the apparatus described on two different days to give samples A and B. The operating conditions were 300 bar and 35° C., with flow rates of 0.2 ml/min for the salmeterol solution and 6 ml/min for the supercritical CO2. The crystallised salmeterol xinafoate provided from each solution was examined for particle size and size distribution.

OCc1cc(C(O)CNCCCCCCOCCCCc2ccccc2)ccc1O (stereo not shown) [SCF salmeterol xinafoate (sample 1), salmeterol xinafoate]
% < 5 μm [1]: 66.0%
% < 10 μm [1]: 94.5%
Mean Particle Size [1]: 3.85 μm
Uniformity index [1]: 10.2
% Drug Retaining on Vial ([2]; sample 1): 2.5%
Dynamic Bulk Density W [3]: 0.033 g · cm^−3

OCc1cc(C(O)CNCCCCCCOCCCCc2ccccc2)ccc1O (stereo not shown) [conventionally crystallised salmeterol xinafoate (non-micron] [reference compound]
Dynamic Bulk Density W [3]: 0.312 g · cm^−3

OCc1cc(C(O)CNCCCCCCOCCCCc2ccccc2)ccc1O (stereo not shown) [Conventionally crystallised salmeterol xinafoate (micronised] [reference compound]
% < 5 μm [1]: >90%
% < 10 μm [1]: >95%
Mean Particle Size [1]: 1-3 μm
Uniformity index [1]: 13.1
% Drug Retaining on Vial [2]: 7.0%
Dynamic Bulk Density W [3]: 0.137 g · cm^−3

OCc1cc(C(O)CNCCCCCCOCCCCc2ccccc2)ccc1O (stereo not shown) [SCF salmeterol xinafoate (sample 2), salmeterol xinafoate]
% < 5 μm [1]: 5.7%
% < 10 μm [1]: 16.1%
Mean Particle Size [1]: 18.84 μm
Uniformity index [1]: 19.2
% Drug Retaining on Vial ([2]; sample 2): 5.7%
Dynamic Bulk Density W [3]: 0.059 g · cm^−3

OCc1cc(C(O)CNCCCCCCOCCCCc2ccccc2)ccc1O (stereo not drawn) [salmeterol xinafoate, 4-hydroxy-α^1-[[[6-(4-phenylbutoxy)hexyl]amino]methyl]-1,3-benzenedimethanol (salmeterol) 1-hydroxy-2-naphthalenecarboxylate (xinafoate)]
maximum particle dimension [4]: up to 300 microns

OCc1cc(C(O)CNCCCCCCOCCCCc2ccccc2)ccc1O (single isomer, unassigned) [Sample B, salmeterol xinafoate]
% < 5 microns [5]: 28.3%
% < 10 microns [5]: 64.5%
Uniformity index [5]: 9
Mean Particle Size [5]: 7.7 Microns

OCc1cc(C(O)CNCCCCCCOCCCCc2ccccc2)ccc1O (single isomer, unassigned) [Sample A, salmeterol xinafoate]
% < 5 microns [5]: 31.6%
% < 10 microns [5]: 67.8%
Uniformity index [5]: 9
Mean Particle Size [5]: 7.2 Microns
